Results on 5 compounds are retold here after BindingDB's records for doi:10.1016/j.bmcl.2003.12.063 (Sankyo, 2004).

The target of the assay is Ileal sodium/bile acid cotransporter (Mesocricetus auratus). The assay is described as follows: In vitro Inhibition of apical sodium-dependent bile acid transporter by measuring the uptake of [3H]taurocholate in hamster ileal ring.

The IC50 is the concentration that gives 50% inhibition. A low value points to greater potency in that assay. Regarding `CCN(C(=O)c1cn(-c2cc(OC)cc(OC)c2)c2cc(OCCCCCCC[N+]34CCN(CC3)CC4)ccc2c1=O)c1cc(F)cc(F)c1` [1-{7-[3-[(3,5-Difluoro-phenyl)-ethyl-carbamoyl]-1-(3,5-dimethoxy-phenyl)-4-oxo-1,4-dihydro-quinolin-7-yloxy]-heptyl}-4-aza-1-azonia-bicyclo[2.2.2]octane; bromide], the IC50 was 0.77 µM. In other words, the sub-micromolar range.

Regarding `CCCCC1(CCCC)CS(=O)(=O)c2ccc(N(C)C)cc2[C@@H](c2ccc(OC)cc2)[C@H]1O` [(4R,5R)-3,3-Dibutyl-7-dimethylamino-5-(4-methoxy-phenyl)-1,1-dioxo-2,3,4,5-tetrahydro-1H-1lambda*6*-benzo[b]thiepin-4-ol], the IC50 was > 63 µM.

For the compound `CCC(CC)CC(=O)c1c(C(=O)OC)c(-c2ccc(OC)c(OC)c2)c2c(OC)c(OC)c(OC)cc2c1OC1O[C@H](C(=O)O)[C@@H](O)[C@H](O)[C@H]1O` (stereo partly drawn) [(2S,3S,4S,5R)-6-[4-(3,4-Dimethoxy-phenyl)-2-(3-ethyl-pentanoyl)-5,6,7-trimethoxy-3-methoxycarbonyl-naphthalen-1-yloxy]-3,4,5-trihydroxy-tetrahydro-pyran-2-carboxylic acid], 2.8 µM corresponded to half-maximal inhibition (IC50). This counts as single-digit micromolar.

Regarding `CCC(CC)CC(=O)c1c(C(=O)OC)c(-c2ccc(OC)c(OC)c2)c2c(OC)c(OC)c(OC)cc2c1O` [1-(3,4-Dimethoxy-phenyl)-3-(3-ethyl-pentanoyl)-4-hydroxy-6,7,8-trimethoxy-naphthalene-2-carboxylic acid methyl ester], the IC50 was > 185 µM.

`CCN(C(=O)c1cn(-c2cc(OC)cc(OC)c2)c2cc(OCCCCCCCC[N+]34CCN(CC3)CC4)ccc2c1=O)c1cc(F)cc(F)c1` [1-{8-[3-[(3,5-Difluoro-phenyl)-ethyl-carbamoyl]-1-(3,5-dimethoxy-phenyl)-4-oxo-1,4-dihydro-quinolin-7-yloxy]-octyl}-4-aza-1-azonia-bicyclo[2.2.2]octane; bromide] returned an IC50 of 1.07 µM.
